Source: article PMC3789393, “Purification and Characterization of Phenylalanine Ammonia Lyase from Trichosporon cutaneum” (Enzyme Research, 2013)

System: T1, Trichosporon cutaneum phenylalanine ammonia lyase (TcPAL)
T1 construct: gene PAL; extra bands at 67 and 31 kDa; 79 kDa monomer; PAL typically homotetramer
Test: continuous spectrophotometric assay of trans-cinnamic acid at […] nm
Assay type: biochemical, Cutaneotrichosporon cutaneum
Conditions: 10 mM Tris-HCl pH 8.0, 30 °C; trial 1 of 3 (the trial quoted in abstract)

`N[C@@H](Cc1ccccc1)C(=O)O` [Phe] gave a Km of 5 ± 1.1 mM.
